Results from PubChem BioAssay (NCI).
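The compound was tested at five concentrations on cells cultured in 96-well plates, with a 48-hour exposure period. Definition used: TGI = concentration required for complete inhibition of growth.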

What was measured:
Test in all cases: growth of human tumour cells (NCI), 48 h
[1] = system: LXFL 529 NSCLC
[2] = system: XF 498 CNS
[3] = system: NCI-H460 lung
[4] = system: ACHN renal
[5] = system: KM12 colon
[6] = system: K-562 leukemia
[7] = system: CAKI-1 renal
[8] = system: U251 CNS
[9] = system: SF-268 CNS
[10] = system: HT29 colon
[11] = system: NCI-H226 lung
[12] = system: SK-OV-3 ovarian
[13] = system: A498 renal
[14] = system: IGROV1 ovarian
[15] = system: MOLT-4 leukemia
[16] = system: SN12C renal
[17] = system: HCC-2998 colon
[18] = system: SK-MEL-5 melanoma
[19] = system: SF-539 CNS
[20] = system: NCI-H23 lung
[21] = system: DLD-1 colon
[22] = system: SK-MEL-28 melanoma
[23] = system: SNB-78 CNS
[24] = system: RXF-631 renal
[25] = system: EKVX NSCLC
[26] = system: OVCAR-8 ovarian
[27] = system: HCT-116 colon
[28] = system: SW-620 colon
[29] = system: OVCAR-4 ovarian
[30] = system: TK-10 renal
[31] = system: OVCAR-3 ovarian
[32] = system: SR leukemia
[33] = system: SF-295 CNS
[34] = system: HCT-15 colon
[35] = system: SNB-75 CNS
[36] = system: A549 NSCLC
[37] = system: SK-MEL-2 melanoma
[38] = system: NCI-H522 lung
[39] = system: M14 melanoma
[40] = system: KM20L2 colon
[41] = system: UACC-62 melanoma
[42] = system: OVCAR-5 ovarian
[43] = system: M19-MEL melanoma
[44] = system: UACC-257 melanoma
[45] = system: DMS 273 small cell lung
[46] = system: RXF 393 renal
[47] = system: COLO 205 colon
[48] = system: MALME-3M melanoma
[49] = system: SNB-19 CNS
[50] = system: CCRF-CEM leukemia
[51] = system: UO-31 renal
[52] = system: HOP-18 NSCLC
[53] = system: HL-60(TB) leukemia
[54] = system: LOX IMVI melanoma
[55] = system: RPMI-8226 leukemia
[56] = system: HOP-62 NSCLC
[57] = system: HOP-92 NSCLC
[58] = system: 786-0 renal
[59] = system: DMS 114 small cell lung

CN1C(=N\S(=O)(=O)c2ccc(Cl)cc2)/C(=N/N=P(c2ccccc2)(c2ccccc2)c2ccccc2)c2ccccc21
TGI [1]: > 100 µM
TGI [2]: > 100 µM
TGI [3]: > 100 µM
TGI [4]: > 100 µM
TGI [5]: > 100 µM
TGI [6]: > 100 µM
TGI [7]: > 100 µM
TGI [8]: > 100 µM
TGI [9]: > 100 µM
TGI [10]: > 100 µM
TGI [11]: > 100 µM
TGI [12]: > 100 µM
TGI [13]: > 100 µM
TGI [14]: > 100 µM
TGI [15]: > 100 µM
TGI [16]: > 100 µM
TGI [17]: > 100 µM
TGI [18]: > 100 µM
TGI [19]: > 100 µM
TGI [20]: > 100 µM
TGI [21]: > 100 µM
TGI [22]: > 100 µM
TGI [23]: > 100 µM
TGI [24]: > 100 µM
TGI [25]: > 100 µM
TGI [26]: > 100 µM
TGI [27]: > 100 µM
TGI [28]: > 100 µM
TGI [29]: > 100 µM
TGI [30]: > 100 µM
TGI [31]: > 100 µM
TGI [32]: > 100 µM
TGI [33]: > 100 µM
TGI [34]: > 100 µM
TGI [35]: > 100 µM
TGI [36]: > 100 µM
TGI [37]: > 100 µM
TGI [38]: > 100 µM
TGI [39]: > 100 µM
TGI [40]: > 100 µM
TGI [41]: > 100 µM
TGI [42]: > 100 µM
TGI [43]: > 100 µM
TGI [44]: > 100 µM
TGI [45]: > 100 µM
TGI [46]: > 100 µM
TGI [47]: > 100 µM
TGI [48]: > 100 µM
TGI [49]: > 100 µM
TGI [50]: > 100 µM
TGI [51]: > 100 µM

Cc1ccc(CCNC(=S)SCC(NC(=O)CCC(N)C(=O)O)C(=O)NCC(=O)O)cc1 (centres undefined)
TGI [1]: 2.12 µM
TGI [2]: 3.15 µM
TGI [3]: 8.09 µM
TGI [4]: 4.17 µM
TGI [5]: 2.68 µM
TGI [6]: 2.5 µM
TGI [7]: 3.44 µM
TGI [8]: 4.06 µM
TGI [9]: 8.29 µM
TGI [10]: 7.01 µM
TGI [11]: 4.47 µM
TGI [12]: 19.2 µM
TGI [13]: 6.25 µM
TGI [14]: 4.77 µM
TGI [15]: 3.93 µM
TGI [16]: 3.84 µM
TGI [52]: 7.76 µM
TGI [17]: 3.54 µM
TGI [18]: 3.78 µM
TGI [19]: 2.97 µM
TGI [20]: 9.99 µM
TGI [21]: 2.63 µM
TGI [53]: 2.6 µM
TGI [22]: 7.63 µM
TGI [54]: 1.55 µM
TGI [24]: 5.62 µM
TGI [25]: 18.6 µM
TGI [26]: 4.65 µM
TGI [27]: 6.26 µM
TGI [28]: 3.01 µM
TGI [29]: 7.41 µM
TGI [55]: 1.43 µM
TGI [30]: 9.95 µM
TGI [56]: 8.08 µM
TGI [31]: 5.27 µM
TGI [32]: 5.91 µM
TGI [33]: 8.69 µM
TGI [34]: 3.72 µM
TGI [35]: 3.44 µM
TGI [36]: 13.4 µM
TGI [37]: 1.45 µM
TGI [38]: 1.45 µM
TGI [57]: 2.8 µM
TGI [39]: 2.56 µM
TGI [40]: 5.1 µM
TGI [41]: 3.08 µM
TGI [42]: 6.11 µM
TGI [43]: 4.07 µM
TGI [44]: 4.47 µM
TGI [58]: 1.6 µM
TGI [45]: 1.68 µM
TGI [46]: 2.32 µM
TGI [47]: 6.63 µM
TGI [59]: 2.72 µM
TGI [48]: 4.47 µM
TGI [49]: 4.98 µM
TGI [50]: 2.18 µM
TGI [51]: 2.33 µM

O=C(N/N=C/c1cc(-c2ccccc2Cl)c(-c2ccccc2Cl)o1)c1ccncc1
TGI [1]: > 100 µM
TGI [2]: > 100 µM
TGI [4]: > 100 µM
TGI [7]: > 100 µM
TGI [9]: > 100 µM
TGI [10]: > 100 µM
TGI [11]: > 100 µM
TGI [12]: > 100 µM
TGI [13]: > 100 µM
TGI [14]: > 100 µM
TGI [16]: > 100 µM
TGI [19]: > 100 µM
TGI [20]: > 100 µM
TGI [21]: > 100 µM
TGI [53]: > 100 µM
TGI [22]: > 100 µM
TGI [54]: > 100 µM
TGI [24]: > 100 µM
TGI [25]: > 100 µM
TGI [27]: > 100 µM
TGI [28]: > 100 µM
TGI [29]: > 100 µM
TGI [55]: 65.9 µM
TGI [30]: > 100 µM
TGI [56]: > 100 µM
TGI [31]: > 100 µM
TGI [33]: > 100 µM
TGI [35]: > 100 µM
TGI [36]: > 100 µM
TGI [37]: > 100 µM
TGI [38]: > 100 µM
TGI [57]: > 100 µM
TGI [39]: > 100 µM
TGI [40]: > 100 µM
TGI [41]: > 100 µM
TGI [42]: > 100 µM
TGI [43]: > 100 µM
TGI [44]: > 100 µM
TGI [58]: > 100 µM
TGI [46]: > 100 µM
TGI [47]: > 100 µM
TGI [59]: > 100 µM
TGI [48]: > 100 µM
TGI [49]: > 100 µM

O=C(Cc1nc2ccccc2s1)C(=O)Nc1ccccc1C(F)(F)F
TGI [1]: > 100 µM
TGI [2]: > 100 µM
TGI [3]: > 100 µM
TGI [4]: > 100 µM
TGI [5]: > 100 µM
TGI [6]: > 100 µM
TGI [7]: > 100 µM
TGI [8]: > 100 µM
TGI [9]: > 100 µM
TGI [10]: > 100 µM
TGI [11]: > 100 µM
TGI [12]: > 100 µM
TGI [13]: > 100 µM
TGI [14]: > 100 µM
TGI [15]: > 100 µM
TGI [16]: > 100 µM
TGI [52]: > 100 µM
TGI [17]: > 100 µM
TGI [18]: > 100 µM
TGI [19]: > 100 µM
TGI [20]: > 100 µM
TGI [21]: > 100 µM
TGI [53]: > 100 µM
TGI [22]: > 100 µM
TGI [23]: > 100 µM
TGI [54]: > 100 µM
TGI [25]: > 100 µM
TGI [26]: > 100 µM
TGI [27]: > 100 µM
TGI [28]: > 100 µM
TGI [29]: > 100 µM
TGI [30]: > 100 µM
TGI [56]: > 100 µM
TGI [31]: > 100 µM
TGI [33]: > 100 µM
TGI [34]: > 100 µM
TGI [35]: > 100 µM
TGI [36]: > 100 µM
TGI [37]: > 100 µM
TGI [38]: > 100 µM
TGI [57]: > 100 µM
TGI [39]: > 100 µM
TGI [40]: > 100 µM
TGI [41]: > 100 µM
TGI [42]: > 100 µM
TGI [43]: > 100 µM
TGI [44]: > 100 µM
TGI [58]: > 100 µM
TGI [45]: > 100 µM
TGI [46]: > 100 µM
TGI [47]: > 100 µM
TGI [59]: > 100 µM
TGI [48]: > 100 µM
TGI [49]: > 100 µM
TGI [50]: > 100 µM
TGI [51]: > 100 µM
